The test relates to PP1c/PP2Ac. Briefly: PP1c versus PP2Ac specificity of p-sites (pairwise comparison / hierarchical clustering of phosphoproteomic data). Particulars: for share of substrates specific to the phosphatase: hierarchical clustering; for number of specific sequences (cluster size): hierarchical clustering after one-way ANOVA. It is filed as biochemical, human. The method, then: For phosphoproteomics, HeLa Kyoto cells were incubated with 20 nM Calyculin A (CST, #9902) for 10–15 min. This time point was determined empirically to yield maximal phosphatase inhibition without cells showing pleiotropic effects. Subsequently, cells were placed on ice and washed twice with cold PBS and scraped in lysis buffer (100 mM NaCl, 10 mM Tris, 0.1% IGEPAL, 1 mM EDTA, 1 mM EGTA, 20 nM Calyculin A, 1x cOmplete Mini protease inhibitor cocktail (Sigma), 1 mM DTT, 1 mM MnCl2, pH 7.5). After 10 pushes through an injection needle (21 G, BD), lysate was cleared from the insoluble fraction by centrifugation (10 min, 10^4 rcf, 4 °C). Protein concentration was then determined by a Bradford Assay and equal amounts of 1 mg total protein were incubated with recombinant PP1c/PP2Ac or buffer at a final phosphatase concentration of 1 µM in a total volume of 200 µL for 1 h at 30 °C. Lysates were then immediately placed on ice. PhosStop […] (Roche) was added and proteins were denatured by adding urea to a final concentration of 8 M taking into account the volume increase. Samples were then snap-frozen in liquid nitrogen for storage and subsequent MS analysis.
Downstream analysis of the phosphoproteomic datasets was carried out using the software tool Perseus[66]. For analysis of phosphoproteomic experiments, row-wise, median-normalized data (see previous section) was linked to known regulatory sites by PhosphoSitePlus entries and categorical columns for treatments were assigned. Reverse peptides and potential contaminants were filtered. Next, categorical columns for biological functions and treatments were assigned. TMT reporter intensities were then transformed into log2. At this point, all data were then filtered for valid values in all three replicates of at least one condition. Next, the distribution of TMT reporter intensities was assessed visually by plotting count-based histogramms and in a multiscatter plot using the Pearson correlation as an estimate of reproducibility. Next, NA (=not available: missing) values were replaced by imputation from a normal distribution (width 0.3, down-shift 1.8, per column). The data quality was routinely assessed by two means: First, by plotting a histogram of peptide length vs. counts and visualization of imputed values to confirm a normal distribution of the data, and secondly by principal component analysis (default settings in Perseus) to judge the sample grouping.
For hierarchical clustering, the results of the one-way ANOVA were processed for two more steps in Perseus: first data were filtered for significant hits from the one-way ANOVA and then subjected to z-transformation. Hierarchical clustering images were produced using Euclidean distance, 300 clusters and 10 rounds of iteration.
Also all further data processing for protein enrichment and extraction of protein sequences in positions −5 to +5 relative to the p-sites of interest for subsequent motif analysis was performed using RStudio with R v3.3.2 using the packages tidyverse and BioStrings. In order to study the sequence specificity of PP1c and PP2Ac on the protein level, position specific probability matrices, representing the relative occurrence for each amino acid surrounding pSer/pThr were produced by extracting sequence information in positions −5 to +5 for all PP1c/PP2Ac-sensitive class I p-sites. Next, the count for each amino acid in each position was divided by the total of all counts for a certain position, resulting in relative abundance. […] Importantly, amino acids with less than 25 counts in PP1-sensitive/-insensitive or PP2A-sensitive/insensitive comparisons were excluded. For calculating a heat map directly comparing PP1c against PP2Ac, these fold changes were divided. […] Obtained p-values were adjusted for multiple testing using the method of Benjamini and Hochberg.
PP1c/PP2Ac-sensitive class I sites were divided into three classes as illustrated for PP1c in Supplementary Fig. 4c. […]

For “PP1c: recombinant catalytic subunit of PP1”, the “share of substrates specific to the phosphatase” value is reported as 28% and the “number of specific sequences (cluster size)” value stood at 777 sequences.
Take “PP2Ac: His-tagged recombinant PPP2CA ΔL309, purchased from Cayman Chemical”: the “share of substrates specific to the phosphatase” value came to 24% and the “number of specific sequences (cluster size)” value is 663 sequences.

The record behind these values is publication PMC7367873, “Dissecting the sequence determinants for dephosphorylation by the catalytic subunits of phosphatases PP1 and PP2A” (Nature Communications, 2020).
